Measured values published in US8318697B2, “Prophylactic and therapeutic treatment of infectious and other diseases with mono- and disaccharide-based compounds” (Corixa Corporation, priority 2000, dated 2012).
Read-outs that look alike come from different tables or passages of the source.

Assays:
[1] = test system: influenza A/HK/68; assay: Lethal influenza challenge model, intranasal monotherapy; conditions: i.n.; for protection against influenza challenge over dose range: doses up to 40 μg, FIG. 12; for protection against influenza challenge, compared by secondary fatty acid chains: FIG. 11, FIG. 13
Method: A dose of 20 μg MonoPhosphoryl Lipid A (MPL) was given to groups of female BALB/c mice by intranasal (i.n.) administration either 2 days prior to or the day of lethal influenza challenge. All mice were challenged with approximately 2 LD50 infectious influenza A/HK/68 administered i.n. Mortality was monitored for 21 days following influenza challenge.
A dose of 20 μg L-Seryl AGPs (RC-526, RC-554, RC-555, RC-537, RC-527, RC-538, RC-560, RC-512 and vehicle only) was given to groups of female BALB/c mice by intranasal (i.n.) administration 2 days prior to or the day of lethal influenza challenge. All mice were challenged with approximately 2 LD50 infectious influenza A/HK/68 administered i.n. The disease index (ruffled fur, hunched posture and labored breathing) was monitored during days 4-19 following influenza challenge. Weight loss and mortality were monitored for 21 days following influenza challenge.

[2] = test system: human PBMCs; assay: Lineage specific cell surface activation markers in human PBMCs; format: cell-based; conditions: LPS 10 ng/ml, RC-526 or RC-527 10 μg/ml
Method: This experiment describes lineage specific cell surface activation markers in human PBMCs activated with LPS or selected AGPs. PBMCs were harvested from a normal donor and plated at 1×10^7 cells/well in a […] (6 well plate) with 3 ml RPMI. LPS (10 ng/ml), RC-526 (10 μg/ml) or RC-527 (10 μg/ml) were added to each of 4 wells. Cells were harvested from each of 2 wells at 4 hr and 24 hr following activation and immediately stained for the lineage and cell surface activation markers.

[3] = test system: human whole blood; format: cell-based; conditions: for IL10/TNFα cba: ratio of IL-10 to TNF; for TNFα/IL10 cba: ratio of TNF to IL-10
[4] = test system: Ogawa P. gingivalis LPS stimulated whole blood cells; assay: Inhibition of LPS-induced cytokines in whole blood; format: cell-based, human; conditions: 10, 5, 2.5 ug/mL
From the text: Table 4 provides the maximum levels of IL-4, IL-2 and IL-5 obtained, as well as ratios of TNF to IL-10, and ratios of IL-10 to TNF. Inhibition data for IL-8, reported as a percentage, are also provided on the right hand side of Table 4. For example, 90% inhibition would calculate to a 90% reduction of cytokine levels. MIP-1β results were similar. […]

[5] = test system: L. monocytogenes 10403 serotype; assay: Murine Listeria monocytogenes challenge model; format: in vivo, Mice; conditions: 1 μg intravenously in 0.2% TEOA, challenge two days later; FIGS. 14-17
Method: This example provides experiments evaluating the induction of non-specific resistance in the murine Listeria monocytogenes challenge model performed using various AGPs and MPL. Mice (5 per group) were treated intravenously with the 1 μg of an AGP or MPL solubilized in 0.2% TEOA. Two days later the mice were challenged intravenously with a ˜10^5 L. monocytogenes 10403 serotype (provided by M. L. Gray, Montana State University, Bozeman, Mont.). Two days after the challenge, the mice were sacrificed and the number of colony forming units (CFUs) in the spleens of individual mice were determined by plating 10-fold serial dilutions of splenic homogenates on tryptic soy agar plates. The degree of protection afforded by a given AGP or MPL was calculated by subtracting the average number of bacteria per spleen (log 10 value) in the group of mice treated with a given compound, from the average number of bacteria per spleen (log 10 value) in a control group that was “sham” treated with vehicle (0.2% TEOA) prior to challenge with L. monocytogenes.

[6] = test system: human peripheral blood mononuclear cells (PBMC); assay: Cytokine elaboration from frozen human PBMC (ELISA); format: cell-based; conditions: PBMC donor AD112, 22 hours; FIG. 9
Method: PBMC were stored frozen until used. PBMC donor designation was AD112. PBMC at a density of 6.26×10^5 were plated per well in a 48 well plate in 1.0 ml of medium. Medium consisted of RPMI-1640 plus sodium bicarbonate, 10% fetal bovine serum, 4 mM glutamine, 100 ug/ml gentamicin and 10 mM HEPES. PBMC were cultured for 22 hours at 37° C. in a carbon dioxide incubator. Supernatants were harvested and tested by ELISA (R&D Systems) for IL-6, IL-8, IL-10 and MIP-1 beta concentration. Cytokine concentration in supernatants was compared to supernatants obtained from unstimulated PBMC cultured identically.

`CCCCCCCCCCC[C@H](CC(=O)N[C@H]1[C@H](OC[C@H](NC(=O)C[C@@H](CCCCCCCCCCC)OC(=O)CCCCC)C(=O)O)O[C@H](CO)[C@@H](OP(=O)(O)O)[C@@H]1OC(=O)C[C@@H](CCCCCCCCCCC)OC(=O)CCCCC)OC(=O)CCCCC.CCN(CC)CC` [RC-526] was tested, and the “protection against influenza challenge over dose range” value [1] was “no difference in protection up to doses of 40 μg”, the “CD3+ CD69+ percent expression in NK-Cells (CD56+)” value (from here on “CD3+ CD69+ percent expression”) ([2]; 4 hr activation) was 1% and the “CD25+ percent expression in B-cells (CD19+)” value ([2]; 4 hr activation) was 0%. For the same compound, the “CD25+ percent expression in Mono/Macs (CD14+)” value ([2]; 4 hr activation) was 1%, the “CD69+ percent expression in B-cells (CD19+)” value ([2]; 4 hr activation) was 11% and the “CD69+ percent expression in Mono/Macs (CD14+)” value ([2]; 4 hr activation) was 1%. The “CD69+ percent expression in NK-Cells (CD56+)” value ([2]; 4 hr activation) was 4%, the “CD69+ percent expression in T-cells (CD3+)” value ([2]; 4 hr activation) was 1% and the “CD86+ percent expression in B-cells (CD19+)” value ([2]; 4 hr activation) was 4%. The “CD95+ percent expression in B-cells (CD19+)” value ([2]; 4 hr activation) was 6%, the “MFI CD11b+ in Mono/Macs (CD14+)” value ([2]; 4 hr activation) was 2154 and the “MFI CD54+ (ICAM-1) in B-cells (CD19+)” value ([2]; 4 hr activation) was 55. For the same compound, the “MFI CD54+(ICAM-1) in Mono/Macs (CD14+)” value ([2]; 4 hr activation) was 502, the “TLR2+ percent expression in Mono/Macs (CD14+)” value ([2]; 4 hr activation) was 93% and the “CD3+ CD69+ percent expression” value ([2]; 24 hr activation) was 2%. For the same compound, the “CD14+ CD25+ percent expression in Mono/Macs (CD14+)” value ([2]; 24 hr activation) was 1%, the “CD14+ CD69+ percent expression in Mono/Macs (CD14+)” value ([2]; 24 hr activation) was 2% and the “CD14+ TLR2+ percent expression in Mono/Macs (CD14+)” value ([2]; 24 hr activation) was 79%. For the same compound, the “CD19+ CD25+ percent expression in B-Cells (CD19+)” value ([2]; 24 hr activation) was 9%, the “CD19+ CD69+ percent expression in B-Cells (CD19+)” value ([2]; 24 hr activation) was 22% and the “CD19+ CD86+ percent expression in B-Cells (CD19+)” value ([2]; 24 hr activation) was 22%. The “CD19+ CD95+ percent expression in B-Cells (CD19+)” value ([2]; 24 hr activation) was 15%, the “CD69+ percent expression in NK-Cells (CD56+)” value ([2]; 24 hr activation) was 4% and the “CD69+ percent expression in T-cells (CD3+)” value ([2]; 24 hr activation) was 2%. The “MFI CD11b+ in Mono/Macs (CD14+)” value ([2]; 24 hr activation) was 1986, the “MFI CD54+ (ICAM-1) in B-cells (CD19+)” value ([2]; 24 hr activation) was 118 and the “MFI CD54+(ICAM-1) in Mono/Macs (CD14+)” value ([2]; 24 hr activation) was 1590. The “IL-1β cba2” value ([3]; donor 1) was 256, the IL10/TNFα cba ([3]; donor 2) was 1.2 and the TNFα/IL10 cba ([3]; donor 2) was 0.9. The “cytokine stimulation in human whole blood cultures” value ([3]; overnight culture) was “little if any cytokine stimulation” and the “% inhib. LPS IL-8” value [4] was 99%.
With `CCCCCCCCCCC[C@H](CC(=O)N[C@H]1[C@H](OC[C@H](NC(=O)C[C@@H](CCCCCCCCCCC)OC(=O)CCCCCCCCC)C(=O)O)O[C@H](CO)[C@@H](OP(=O)(O)O)[C@@H]1OC(=O)C[C@@H](CCCCCCCCCCC)OC(=O)CCCCCCCCC)OC(=O)CCCCCCCCC.CCN(CC)CC` [RC-527] the “protection against influenza challenge over dose range” value [1] was “maximum protection over a dose range of 2.5 μg to 40 μg”, the “protection against L. monocytogenes challenge (reduction of log 10 bacteria per spleen vs vehicle)” value [5] was “protection that was equal to or greater than that provided by MPL” and the “CD3+ CD69+ percent expression” value ([2]; 4 hr activation) was 11%. The “CD25+ percent expression in B-cells (CD19+)” value ([2]; 4 hr activation) was 0%, the “CD25+ percent expression in Mono/Macs (CD14+)” value ([2]; 4 hr activation) was 1% and the “CD69+ percent expression in B-cells (CD19+)” value ([2]; 4 hr activation) was 56%. For the same compound, the “CD69+ percent expression in Mono/Macs (CD14+)” value ([2]; 4 hr activation) was 22%, the “CD69+ percent expression in NK-Cells (CD56+)” value ([2]; 4 hr activation) was 40% and the “CD69+ percent expression in T-cells (CD3+)” value ([2]; 4 hr activation) was 10%. The “CD86+ percent expression in B-cells (CD19+)” value ([2]; 4 hr activation) was 8%, the “CD95+ percent expression in B-cells (CD19+)” value ([2]; 4 hr activation) was 7% and the “MFI CD11b+ in Mono/Macs (CD14+)” value ([2]; 4 hr activation) was 1870. For the same compound, the “MFI CD54+ (ICAM-1) in B-cells (CD19+)” value ([2]; 4 hr activation) was 65, the “MFI CD54+(ICAM-1) in Mono/Macs (CD14+)” value ([2]; 4 hr activation) was 743 and the “TLR2+ percent expression in Mono/Macs (CD14+)” value ([2]; 4 hr activation) was 85%. For the same compound, the “CD3+ CD69+ percent expression” value ([2]; 24 hr activation) was 16%, the “CD14+ CD25+ percent expression in Mono/Macs (CD14+)” value ([2]; 24 hr activation) was 70% and the “CD14+ CD69+ percent expression in Mono/Macs (CD14+)” value ([2]; 24 hr activation) was 22%. The “CD14+ TLR2+ percent expression in Mono/Macs (CD14+)” value ([2]; 24 hr activation) was 97%, the “CD19+ CD25+ percent expression in B-Cells (CD19+)” value ([2]; 24 hr activation) was 34% and the “CD19+ CD69+ percent expression in B-Cells (CD19+)” value ([2]; 24 hr activation) was 66%. For the same compound, the “CD19+ CD86+ percent expression in B-Cells (CD19+)” value ([2]; 24 hr activation) was 51%, the “CD19+ CD95+ percent expression in B-Cells (CD19+)” value ([2]; 24 hr activation) was 73% and the “CD69+ percent expression in NK-Cells (CD56+)” value ([2]; 24 hr activation) was 50%. For the same compound, the “CD69+ percent expression in T-cells (CD3+)” value ([2]; 24 hr activation) was 10%, the “MFI CD11b+ in Mono/Macs (CD14+)” value ([2]; 24 hr activation) was 1611 and the “MFI CD54+ (ICAM-1) in B-cells (CD19+)” value ([2]; 24 hr activation) was 211. For the same compound, the “MFI CD54+(ICAM-1) in Mono/Macs (CD14+)” value ([2]; 24 hr activation) was 4445, the “IL-1β cba2” value ([3]; donor 1) was 7102 and the IL10/TNFα cba ([3]; donor 1) was 0.4. It also gave a TNFα/IL10 cba ([3]; donor 1) of 2.5, an IL10/TNFα cba ([3]; donor 2) of 0.3 and a TNFα/IL10 cba ([3]; donor 2) of 3.4. For the same compound, the “% inhib. LPS IL-8” value [4] was 5%.
For `CCCCCCCCCCCCCC(=O)O[C@H](CCCCCCCCCCC)CC(=O)NCCO[C@@H]1O[C@H](CO)[C@@H](OP(=O)(O)O)[C@H](OC(=O)C[C@@H](CCCCCCCCCCC)OC(=O)CCCCCCCCCCCCC)[C@H]1NC(=O)C[C@@H](CCCCCCCCCCC)OC(=O)CCCCCCCCCCCCC.CCN(CC)CC` [RC-529], the IL10/TNFα cba ([3]; donor 1) was 6.2, the TNFα/IL10 cba ([3]; donor 1) was 0.4 and the “IL-6 elaboration compared to MPL” value [6] was “induced more IL-6, IL-10 and MIP-1 beta than did MPL”. For the same compound, the “IL-10 elaboration compared to MPL” value [6] was “induced more IL-6, IL-10 and MIP-1 beta than did MPL” and the “MIP-1 beta elaboration compared to MPL” value [6] was “induced more IL-6, IL-10 and MIP-1 beta than did MPL”.
In the case of `CCCCCCCCCCC[C@H](CC(=O)N[C@H](CO)CCO[C@@H]1O[C@H](CO)[C@@H](OP(=O)(O)O)[C@H](OC(=O)C[C@@H](CCCCCCCCCCC)OC(=O)CCCCCCCCC)[C@H]1NC(=O)C[C@@H](CCCCCCCCCCC)OC(=O)CCCCCCCCC)OC(=O)CCCCCCCCC.CCN(CC)CC` [RC-540], the “protection against L. monocytogenes challenge (reduction of log 10 bacteria per spleen vs vehicle)” value [5] was “protection that was equal to or greater than that provided by MPL”, the IL10/TNFα cba ([3]; donor 1) was 5.5 and the TNFα/IL10 cba ([3]; donor 1) was 0.2. The IL10/TNFα cba ([3]; donor 2) was 5.2 and the TNFα/IL10 cba ([3]; donor 2) was 0.2.
With `CCCCCCCCCCC[C@H](CC(=O)N[C@H]1[C@H](OC[C@H](NC(=O)C[C@@H](CCCCCCCCCCC)OC(=O)CCCCCCCCC)C(=O)O)O[C@H](CO)[C@@H](OP(=O)(O)O)[C@@H]1OC(=O)C[C@@H](CCCCCCCCCCC)OC(=O)CCCCCCCCC)OC(=O)CCCCC.CCN(CC)CC` [RC-565] the “protection against influenza challenge, compared by secondary fatty acid chains” value [1] was “more protective than those having fewer” and the “% inhib. LPS IL-8” value [4] was 16%.
In the case of `CCCCCCCCCCC[C@H](CC(=O)N[C@H]1[C@H](OC[C@H](NC(=O)C[C@@H](CCCCCCCCCCC)OC(=O)CCCCC)C(=O)O)O[C@H](CO)[C@@H](OP(=O)(O)O)[C@@H]1OC(=O)C[C@@H](CCCCCCCCCCC)OC(=O)CCCCCCCCC)OC(=O)CCCCCCCCC.CCN(CC)CC` [RC-569], the “protection against influenza challenge, compared by secondary fatty acid chains” value [1] was “more protective than those having fewer” and the “% inhib. LPS IL-8” value [4] was −13%.
